Data published in ChEMBL document CHEMBL4823252 (J Med Chem, 2021).

Experiments:
[1] = system: MV4-11; experiment: Antiproliferative activity against human MV4-11 cells incubated for 72 hrs by Cell Counting Kit-8 assay; format: functional, cell-based; details: MV4-11, 72 h
[2] = system: MOLM-13; experiment: Antiproliferative activity against human MOLM-13 cells incubated for 72 hrs by Cell Counting Kit-8 assay; format: functional, cell-based; details: MOLM-13, 72 h
[3] = Chemical stability of compound incubated for 90 days by HPLC analysis; format: physicochemical; details: time 90 day; read-out: Stabilty
[4] = target: T1, Receptor-type tyrosine-protein kinase FLT3 (Homo sapiens, UniProt P36888); experiment: Inhibition of FLT3 (unknown origin) incubated for 30 mins in presence of ATP by mobility shift assay
T1 sequence (P36888 whole entry): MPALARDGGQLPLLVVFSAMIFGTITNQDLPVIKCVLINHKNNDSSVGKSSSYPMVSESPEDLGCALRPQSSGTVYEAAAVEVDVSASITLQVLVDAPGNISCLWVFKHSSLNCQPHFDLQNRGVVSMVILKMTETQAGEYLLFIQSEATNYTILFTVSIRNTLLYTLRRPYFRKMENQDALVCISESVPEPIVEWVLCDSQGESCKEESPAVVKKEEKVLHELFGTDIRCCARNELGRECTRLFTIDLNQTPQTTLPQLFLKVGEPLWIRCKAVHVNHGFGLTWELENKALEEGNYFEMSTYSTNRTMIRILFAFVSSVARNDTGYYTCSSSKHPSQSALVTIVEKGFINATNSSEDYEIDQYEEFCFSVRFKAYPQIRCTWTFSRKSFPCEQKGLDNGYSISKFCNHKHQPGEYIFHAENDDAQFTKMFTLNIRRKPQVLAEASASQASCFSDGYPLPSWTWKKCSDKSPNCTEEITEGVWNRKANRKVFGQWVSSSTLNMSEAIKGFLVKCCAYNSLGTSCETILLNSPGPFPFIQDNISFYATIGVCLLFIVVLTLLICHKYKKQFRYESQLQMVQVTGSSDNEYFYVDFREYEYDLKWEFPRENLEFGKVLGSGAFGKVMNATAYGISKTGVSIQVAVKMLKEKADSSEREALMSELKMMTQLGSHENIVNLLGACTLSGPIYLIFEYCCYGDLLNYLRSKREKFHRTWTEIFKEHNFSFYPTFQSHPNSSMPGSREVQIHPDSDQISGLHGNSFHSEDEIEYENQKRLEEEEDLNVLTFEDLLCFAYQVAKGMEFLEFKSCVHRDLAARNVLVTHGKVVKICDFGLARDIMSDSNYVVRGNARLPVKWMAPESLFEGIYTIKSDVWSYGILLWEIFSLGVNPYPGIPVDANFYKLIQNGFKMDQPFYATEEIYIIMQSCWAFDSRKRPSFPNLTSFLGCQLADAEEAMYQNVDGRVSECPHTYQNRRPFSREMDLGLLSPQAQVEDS

[5] = system: MOLM-13; experiment: Antiproliferative activity against human sunitinib-resistant MOLM-13 cells at 1000 nM incubated for 72 hrs by CCK8 assay relative to control; format: functional
[6] = system: MOLM-13; experiment: Antiproliferative activity against human sunitinib-resistant MOLM-13 cells at 111 nM incubated for 72 hrs by CCK8 assay relative to control; format: functional
[7] = system: MOLM-13; experiment: Antiproliferative activity against human sunitinib-resistant MOLM-13 cells at 37 nM incubated for 72 hrs by CCK8 assay relative to control; format: functional
[8] = system: MOLM-13; experiment: Antiproliferative activity against human sunitinib-resistant MOLM-13 cells at 12 nM incubated for 72 hrs by CCK8 assay relative to control; format: functional
[9] = system: MOLM-13; experiment: Antiproliferative activity against human sunitinib-resistant MOLM-13 cells at 4 nM incubated for 72 hrs by CCK8 assay relative to control; format: functional
[10] = system: MOLM-13; experiment: Antiproliferative activity against human sunitinib-resistant MOLM-13 cells at 1 nM incubated for 72 hrs by CCK8 assay relative to control; format: functional
[11] = system: MOLM-13; experiment: Antiproliferative activity against human quizartinib-resistant MOLM-13 cells at 1000 nM incubated for 72 hrs by CCK8 assay relative to control; format: functional
[12] = system: MOLM-13; experiment: Antiproliferative activity against human quizartinib-resistant MOLM-13 cells at 333 nM incubated for 72 hrs by CCK8 assay relative to control; format: functional
[13] = system: MOLM-13; experiment: Antiproliferative activity against human quizartinib-resistant MOLM-13 cells at 111 nM incubated for 72 hrs by CCK8 assay relative to control; format: functional
[14] = system: MOLM-13; experiment: Antiproliferative activity against human quizartinib-resistant MOLM-13 cells at 37 nM incubated for 72 hrs by CCK8 assay relative to control; format: functional
[15] = system: MOLM-13; experiment: Antiproliferative activity against human quizartinib-resistant MOLM-13 cells at 12 nM incubated for 72 hrs by CCK8 assay relative to control; format: functional
[16] = system: MOLM-13; experiment: Antiproliferative activity against human quizartinib-resistant MOLM-13 cells at 4 nM incubated for 72 hrs by CCK8 assay relative to control; format: functional
[17] = system: MOLM-13; experiment: Antiproliferative activity against human quizartinib-resistant MOLM-13 cells at 1 nM incubated for 72 hrs by CCK8 assay relative to control; format: functional
[18] = system: MOLM-13; experiment: Antiproliferative activity against human sunitinib-resistant MOLM-13 cells at 333 nM incubated for 72 hrs by CCK8 assay relative to control; format: functional

SMILES | IC50 [1] [µM] | IC50 [2] [µM] | IC50 [4] [µM] | other results
Cc1c(NC(=O)CNC2CCCC2)c[nH]c1/C=C1\C(=O)Nc2ccc(F)cc21 | 0.125 | 0.158 |  | 
Cc1[nH]c(/C=C2\C(=O)Nc3ccc(F)cc32)c(C)c1NC(=O)[C@@H]1CCCN1 | 0.0409 |  |  | remaining at 2160 h [3]: 80.8%
Cc1c(/C=C2\C(=O)Nc3ccc(F)cc32)[nH]c(Br)c1NC(=O)[C@@H]1CCCN1 | 0.0615 |  |  | remaining at 2160 h [3]: 96.6%
Cc1c(NC(=O)CCN2CCCC2)c[nH]c1/C=C1\C(=O)Nc2ccc(Cl)cc21 | 0.0209 | 0.0645 |  | 
Cc1c(NC(=O)CN2CCCCC2)c[nH]c1/C=C1\C(=O)Nc2ccc(F)cc21 | 0.252 | > 1 |  | 
Cc1c(NC(=O)[C@@H]2CCCN2)c[nH]c1/C=C1\C(=O)Nc2ccc(F)cc21 | 0.0372 | 0.0359 | 0.0025 | remaining at 2160 h [3]: 99.1%
Cc1c(NC(=O)CCN2CCCCC2)c[nH]c1/C=C1\C(=O)Nc2ccc(F)cc21 | 0.0442 | 0.0642 | 0.0013 | 
Cc1c(/C=C2\C(=O)Nc3ccc(F)cc32)[nH]c(Cl)c1NC(=O)[C@@H]1CCCN1 | 0.0507 |  |  | remaining at 2160 h [3]: 95.4%
Cc1c(NC(=O)CCN2CCOCC2)c[nH]c1/C=C1\C(=O)Nc2ccc(F)cc21 | 0.133 | 0.173 |  | 
Cc1c(NC(=O)CN2CCN(C)CC2)c[nH]c1/C=C1\C(=O)Nc2ccc(F)cc21 | 0.0518 | 0.0484 | 0.0027 | 
Cc1c(NC(=O)CN2CCCC2)c[nH]c1/C=C1\C(=O)Nc2ccc(F)cc21 | 0.077 | 0.0619 | 0.0014 | 
Cc1c(NC(=O)CCN2CCCC2)c[nH]c1/C=C1\C(=O)Nc2ccc(Br)cc21 | 0.0586 | 0.0715 |  | 
Cc1c(NC(=O)C2CCNCC2)c[nH]c1/C=C1\C(=O)Nc2ccc(F)cc21 | 0.177 | 0.143 |  | 
Cc1c(NC(=O)C2CCCCN2)c[nH]c1/C=C1\C(=O)Nc2ccc(F)cc21 (stereo unspecified) | 0.0544 | 0.0592 | 0.0024 | 
COc1ccc2c(c1)/C(=C/c1[nH]cc(NC(=O)CCN3CCCC3)c1C)C(=O)N2 | 0.0289 | 0.0557 |  | 
CC(C)(C)c1cc(NC(=O)Nc2ccc(-c3cn4c(n3)sc3cc(OCCN5CCOCC5)ccc34)cc2)no1 [QUIZARTINIB] |  |  |  | Activity [5]: 10.9%; Activity [6]: -1.5%; Activity [7]: 0.2%; Activity [8]: 2.8%; Activity [9]: -0.9%; Activity [10]: 1.4%; Activity [11]: 1.3%; Activity [12]: -4.1%; Activity [13]: -5.8%; Activity [14]: -0.8%; Activity [15]: 2.9%; Activity [16]: -0.4%; Activity [17]: 5.2%; Activity [18]: 5.7%
Cc1c(NC(=O)[C@H]2CCCN2)c[nH]c1/C=C1\C(=O)Nc2ccc(F)cc21 | 0.0699 | 0.0708 |  | 

Now from value to compound, other results behind:

IC50 [1] [µM] | IC50 [2] [µM] | IC50 [4] [µM] | SMILES | other results
0.0786 | 0.036 | 0.002 | Cc1c(NC(=O)CN(C)C)c[nH]c1/C=C1\C(=O)Nc2ccc(F)cc21 | 
0.0413 | 0.0475 | 0.003 | Cc1c(NC(=O)CCN2CCN(C)CC2)c[nH]c1/C=C1\C(=O)Nc2ccc(F)cc21 | 
0.0292 | 0.0443 | 0.0006 | Cc1c(NC(=O)CCNC2CCCC2)c[nH]c1/C=C1\C(=O)Nc2ccc(F)cc21 | 
0.0303 | 0.0543 | 0.002 | CCN(CC)CCC(=O)Nc1c[nH]c(/C=C2\C(=O)Nc3ccc(F)cc32)c1C | 
0.0324 | 0.057 | 0.0017 | Cc1c(NC(=O)CCN(C)C)c[nH]c1/C=C1\C(=O)Nc2ccc(F)cc21 | 
0.0347 | 0.0574 | 0.0017 | CCCNCCC(=O)Nc1c[nH]c(/C=C2\C(=O)Nc3ccc(F)cc32)c1C | 
0.0345 | 0.0512 | 0.0025 | CCNCCC(=O)Nc1c[nH]c(/C=C2\C(=O)Nc3ccc(F)cc32)c1C | 
0.05 | 0.0359 | 0.0027 | Cc1c(NC(=O)CC2CCCN2)c[nH]c1/C=C1\C(=O)Nc2ccc(F)cc21 (stereo unspecified) | 
0.0448 | 0.0582 | 0.0018 | Cc1c(NC(=O)CCNC(C)(C)C)c[nH]c1/C=C1\C(=O)Nc2ccc(F)cc21 | 
0.0817 | 0.176 |  | CCN(CC)CC(=O)Nc1c[nH]c(/C=C2\C(=O)Nc3ccc(F)cc32)c1C | 
